# Results taken from US20070202058A1, “Compositions for treating gastric reflux” (priority 2006, published 2007).
# Key:
# [1] = system: aspirin induced gastric lesions; test: Prevention of aspirin induced gastric lesions (U.S. Pat. No. 3,988,466, Table 1); assay type: in vivo; settings: aspirin induced gastric lesions (Table 1)
# Experimental: (§1) U.S. Pat. No. 3,988,466 reports that amino acids, particularly, L-glutamine are effective for the prevention or treatment of certain experimental ulcers, induced artificially by stress or pylorus ligation, or chemically by histamine, reserpine, cortisone, or inflammatory agents when given simultaneously. Further, such prevention only occurred when the concomitant dosage of the amino acid, L-glutamine, present was 2-5 g for a dose of aspirin of 0.3-1.0 g or for 25-50 mg of indomethacin, the required dose of L-glutamine was 2 g. […] Glutamine was ineffective in prevention of indomethacin induced gastric lesions at a dose of 15.6 mg/kg (Table 2) which is equivalent to 1.1 g for an human adult (70 kg weight). No use or indication for relief of gastric distress before or after lesion formation was observed, nor could it have been in the animal model used. No use or indication for relief of gastric lesions after lesion formation was disclosed. […] Of the 24 amino acids tried at the pharmaceutically unacceptable level of 750 mg/kg (calculated to be 52.5 g of the amino acid for a 70 kg human dose), all but DL-tryptophan, L-aspartic acid, L-tyrosine, L-cysteine and L-cystine gave more than 50% inhibition of ulcers. The pH of the amino acids was not a factor in ulcer prevention, showing that “the effect of amino acids is different from that of antacids” (Col 6, lines 27-31)
# small bowel ulcers = settings: rats, cited from earlier work; for ulcer healing: glutamine given in a guar gum
# [2] = system: indomethacin induced gastric lesions; settings: cited from earlier work
# [3] = system: aspirin induced gastric lesions; settings: cited from earlier work
# [4] = system: indomethacin induced gastric lesions; test: Prevention of indomethacin induced gastric lesions (U.S. Pat. No. 3,988,466, Table 2); assay type: in vivo; settings: indomethacin induced gastric lesions (Table 2)
# Experimental: as §1
# [5] = system: gastric reflux (heartburn); test: Example 9: patient with stress-related gastric reflux takes L-lysine confection; assay type: in vivo, human; settings: for effect of the patient's earlier treatments on gastric reflux / heartburn: same patient, Nexium 40 mg twice a day
structure (smiles),measurement,setting,value
"NC(=O)CC[C@H](N)C(=O)O [Glutamine, L-glutamine]",minimum effective dose calculated for a 70 kg human,[1],8.75 g
same,ulcer healing,small bowel ulcers,no effect
same,prevention of indomethacin induced gastric lesions,[2]; dose of 15.6 mg/kg,ineffective
same,minimum effective dose,[2]; indomethacin induced gastric lesions (Table 2),31.3 mg/kg
same,minimum effective dose,[3]; aspirin induced gastric lesions (Table 1),125 mg/kg
same,prevention of aspirin induced gastric lesions,[3]; dose of 62.5 mg/kg,completely ineffective
same,minimum effective dose calculated for a 70 kg human,[4],2.2 g
N=C(N)NCCC[C@H](N)C(=O)O [L-arginine],decrease in ulcer number,small bowel ulcers; L-arginine together with yeast RNA (antagonistic),34%
same,ulcer healing,small bowel ulcers,somewhat effective
NCCCC[C@H](N)C(=O)O [L-lysine],time to complete cessation of all symptoms,[5]; 1 gram dose as a carrageenan confection,one
same,relief of heartburn,"[5]; 1 gram dose as a carrageenan confection, patient with gastric reflux due to stress",immediate relief
"COc1ccc2nc([S@@+]([O-])Cc3ncc(C)c(OC)c3C)[nH]c2c1 [Nexium, esomeprazole, reference compound]",effect of the patient's earlier treatments on gastric reflux / heartburn,[5],continued heartburn
"O=C([O-])[O-].[Ca+2] [calcium carbonate antacids, calcium carbonate, reference compound]",effect of the patient's earlier treatments on gastric reflux / heartburn,[5],ineffective
